For assay [1], the system named is Mycobacterium tuberculosis H37Rv (ATCC 27294). The assay can be described thus: Microplate Alamar Blue Assay (MABA). In kind it is cell-based. The settings on record: M. tuberculosis H37Rv, BACTEC 12B medium, pH 6.8, concentration effecting 90% reduction in fluorescence relative to controls. The method, then:
A series of in vitro tests were carried out to determine the properties of known compounds alongside a rhenium derivative of an in vivo imaging agent of the present invention. These tests were the Microplate Alamar Blue Assay (MABA) (Franzblau S et al., J Clin Microbiol 1998, 36, 362-366), the Low Oxygen Recovery Assay (LORA) (Cho et al., Antimicro Agents Chemother 2007, 51, 1380-1385), and the VERO cell cytotoxicity assay to determine IC 50 (Cory A H et al., Cancer Commun 1991, 3, 207-12).
The initial screen was conducted against Mycobacterium tuberculosis H37Rv (ATCC 27294) in BACTEC 12B medium using the Microplate Alamar Blue Assay (MABA). Compounds were tested in ten 2-fold dilutions, typically from 100 μg/mL to 0.19 μg/mL at pH 6.8. The MIC90 is defined as the concentration effecting a reduction in fluorescence of 90% relative to controls. This value was determined from the dose-response curve using a curve-fitting program.

The next assay has as its system VERO cell. Description: VERO cell cytotoxicity assay. In kind it is cell-based. Conditions: Chlorocebus sabaeus, 72 hours exposure, Cell Titer Glo viability. A general note: ATP-based viability assays read luminescence as a measure of living cells.

Values after ≈ are worked out from the molar mass of the structure shown. Some results are limits rather than exact numbers.

`COc1ccc(CSCCNCCN(CCCN)CCSCc2ccc(OC)cc2)cc1` [Chelate alone] had an MIC in assay [1] of 1.49 µg/mL (≈ 3.12 µM). For the same compound, the IC50 in the assay on VERO cell is over 50 µg/mL.

Turning to `NC(=O)c1cnccn1` [Standard drug, Pyrazinamide], the MIC in assay [1] was over 100 µg/mL.

In assay [1], `COc1ccc(CSCCNCCN(CCCNC(=O)c2cnccn2)CCSCc2ccc(OC)cc2)cc1` [PZA + Chelate] showed an MIC of 10.4 µg/mL. In addition, in the assay with VERO cell, half-maximal inhibition (IC50) required 36.8 µg/mL.

Broadly, the MIC is the least concentration at which growth counts as inhibited. One may read the IC50 as the concentration that gives 50% inhibition.

Values taken from patent US20130149249A1, “IMAGING TUBERCULOSIS WITH PYRAZINAMIDE CONTRAST AGENTS” (GE HEALTHCARE LIMITED, priority 2010, published 2013).
